Measurements: patent US20230123140A1, “DOSE TREATMENTS OF TAUOPATHIES” (AC Immune SA, priority 2020, published 2023)

Assays:
[1] = tested on: Tg4510 transgenic mouse model; assay: Studies of ACI-3024 in the Tg4510 transgenic mouse model (CSF target level); type: in vivo; conditions: derived from studies in Tg4510 transgenic mouse model
Protocol: The present invention is directed to a compound ACI-3024 for use in the treatment, prevention or alleviation of a disorder or an abnormality associated with Tau protein aggregates or a tauopathy comprising administering said compound at an amount up to or equal to 1500 mg/day to a human subject in need thereof wherein the compound ACI-3024 is constantly present in the human subject CSF at a concentration above or equal to 30 nM level at predose, preferably above or equal to 90 nM level at predose. The predefined predose level of ACI-3024 of 30 nM is derived from studies of ACI-3024 in the Tg4510 transgenic mouse model which reflects the clinical manifestation of tauopathies and determines the minimum concentration of the compound in the CSF necessary to achieve clinical efficacy before another dose of the same compound is given (ie a threshold value below which efficacy would be lost). Preferably, the compound ACI-3024 is present in the human subject CSF at a concentration above or equal to 30 nM, preferably above or equal to 90 nM, during the treatment.

[2] = tested on: Central Nervous System function; assay: Central nervous system evaluation in mice (functional observation battery); type: in vivo, mouse; conditions: single oral administration 100, 300 or 750 mg/kg, female CD1 mice
Protocol: This study was conducted to evaluate the potential modifications of central nervous system (CNS) activity by ACI-3024 when given as single dose to CD1 mice.
Doses of 100, 300 and 750 mg/kg were administered by oral gavage to 8 females/group. The control animals were administered vehicle. The dose volume was 10 mL/kg for all groups. Approximately 2, 4, 6 and 24 hours after the treatment, each mouse was subjected to a functional observation battery in order to investigate possible treatment-induced effects on the CNS or in any of its domains: neurologic, autonomic and behavioral.

respiratory function = assay: Respiratory function evaluation in mice (whole body plethysmography); type: in vivo, mouse; conditions: single oral administration 100, 300 and 750 mg/kg, conscious female mice
Protocol: This study was conducted to evaluate the potential modifications of respiratory function by ACI-3024 when given as single dose to CD1 mice.
Doses of 100, 300 and 750 mg/kg were administered by oral gavage to 8 females/group. The control animals were administered vehicle. The dose volume was 10 mL/kg for all groups. Animals underwent a whole body plethysmography carried out starting 30 minutes before dosing up to 5 hours after; moreover, a subsequent 1-hour registration was conducted 24 hours post dose.

cardiovascular system = assay: Cardiovascular evaluation in telemetrized mini-pig; type: in vivo; conditions: single oral dose 0, 50, 150 and 450 mg/kg, male Gottingen mini-pigs
Protocol: This study was conducted to evaluate the potential effects on the cardiovascular system of ACI-3024 when given as single dose to telemetrized Gottingen mini-pig.
Doses of 0, 50, 150 and 450 mg/kg were administered by oral gavage to 4 males/group. The dose volume was set at 5 mL/kg. The study was a randomized cross over design which consisted of four phases separated by seven days of wash out. In each phase each animal received as single administration of one selected doses. Through the phases each animal received all the dose levels once. ECG (heart rate, duration of the PR, QRS, QT, QTcF (QT interval corrected by Fridericia) and RR intervals (millisecond; ms), blood pressure (systolic, diastolic, and mean arterial pressure) and body temperature parameters through a transmitter implanted into the animals were continuously recorded starting from 30 minutes before dosing up to 20 hours after dose. Different timepoints during the recording period were sampled (−30 min (before dose) and 1 h, 2 h, 4 h, 6 h, 8 h, 12 h and 20 h (after dose)), per each timepoint 5-minute segment was used for study purposes.

CD1 mice = assay: 4-week toxicity study in mice followed by 2 weeks of recovery; type: in vivo, mouse; conditions: 1000 mg/kg/day p.o., Day 9
Protocol: (§1) This study was conducted to evaluate the potential toxicity of ACI-3024 when given daily by oral gavage to CD1 mice for 4 weeks, followed by a 2-week recovery period. Doses of 100, 300 and 1000 mg/kg were administered by p.o. to 10 animals/sex/group daily. The control animals were administered vehicle. The dose volume was 10 mL/kg for all groups.
(§2) Clinical signs, body weights, food consumption, ophthalmology, clinical pathology were evaluated. For each sex/group, a complete necropsy was conducted on 10 animals at the end of the dosing period and on 6 (only control and high dose groups) surviving animals at end of the recovery period.

[3] = as above; type: in vivo, mouse; conditions: both sexes, CD1, mouse, in vivo, po
Protocol: as §1, §2

Structure (SMILES): Fc1ccc2c3c([nH]c2c1)CCN(c1ccc2oc(N4CCOCC4)nc2c1)C3 [ACI-3024]
- minimum predose CSF level necessary for efficacy (target) [1]: 30 nM
- effect on Central Nervous System function [2]: no effect
- effect on respiratory parameters (respiratory function): did not exert effect
- effect on cardiovascular parameters and body temperature (cardiovascular system): no effect
- mortality / premature euthanasia (CD1 mice): only one female animal was prematurely euthanized
- NOAEL at 4 weeks [3]: 300 mg/kg/day
